melting point [°C] | Compound
244 to 251 | Cc1cc(CCNc2ncnc3c(F)ccc(F)c23)ccc1O
246 to 247 | NS(=O)(=O)c1c(Cl)nc2n1CCS2(=O)=O
48 to 50 | CC(Cl)OC(=O)C=Cc1cc(N=C=O)ccc1Cl (centres undefined)
140 to 145 | CCc1cc(C(=O)c2ccccc2Cl)c(-n2c(C)nnc2CNC(=O)c2c[nH]c3ccccc23)s1
140 to 141 | Cc1cccc(Cn2cccc2C(=O)CC(=O)C(=O)O)c1
82 to 85 | CCCCCCCCCCC[C@@H]1CC(=O)CC(=O)O1
47 to 48 | COc1cc(C(=O)NCc2ccc(N)cc2)cc(OC)c1OC(C)=O
144 to 147 | Cc1ccnc(NC(c2ccc(C(F)(F)F)cc2)c2ccc3cccnc3c2O)n1 (centres undefined)
144 to 150 | CCCc1nc(-n2c(C)ccc2C)c(/C=C/C(=O)O)n1Cc1ccc(-c2ccccc2-c2nnn[nH]2)cc1
115 to 120 | COc1ccc(C(=O)Nc2ccc3ccc(Oc4ccccc4)nc3n2)cn1
126 to 134 | CC(C(=O)NCC(F)(F)C(F)(F)F)C(=O)NC1C(=O)N(C)c2cc(F)ccc2OC1C (centres undefined)
147 to 149 | CN(C)S(=O)(=O)Nc1cc(C(=O)c2ccccc2)ccc1N
146 to 147 | c1ccc2c(c1)CC(CCN1CCN(c3cccc4[nH]ccc34)CC1)C2
201 to 203 | CC(=O)n1[nH]c(=O)n(-c2ccc(Cl)cc2)c1=O
141 to 142 | COc1ccc2c(C)c(CCO)c(=O)oc2c1
129 to 131 | COc1ccc(Cn2ccn(C3CCc4ccccc4C3)c2=S)cc1OC (centres undefined)
123 | Cc1ccc2c(c1)c(=O)c1c(cnn1C)n2-c1cccc(I)c1
94 to 95 | COc1cc(C(=O)C=Cc2ccccn2)cc(OC)c1OC
177 to 179 | CC(C)On1c(C(C)C)nc2c(N)nc3ccccc3c21
175 to 177 | C[C@H](CNc1nc(Cl)nc2c1ncn2[C@@H]1O[C@H](CO)[C@@H](O)[C@H]1O)Oc1ccccc1
185 | CCCCN=C(N)Nc1nc(C)cc(C)n1
174 to 176 | COc1ccc(C(O)c2ccccn2)c(Cl)c1Cl (centres undefined)

Second part, the compound before the results:

Compound | melting point [°C]
O=CC1=CC2=C(OC1)c1ccccc1S(=O)(=O)N2 | 108 to 110
Cc1c(C(=O)Nc2ccc(N3CCC(N4CCOCC4)CC3)c(C#N)c2)cnn1-c1ccc(Cl)c(Cl)c1 | 242
CN1C(=O)N(c2nnc(C(C)(C)C)s2)C(=O)C1O (centres undefined) | 163 to 164
O=Cc1ccc2ccccc2c1OCc1ccccc1 | 62 to 63
CC(c1ccc(C(F)(F)F)cc1[N+](=O)[O-])[N+](=O)[O-] (centres undefined) | 48
COC(=O)c1ccc(Cc2cn(C)c3ccc(C=C(C)C(=O)O)cc23)c(OC)c1 | 182 to 183
CC(C)(C)OC(=O)COC1CCN(CC2CN(c3ccc(CN)cc3)C(=O)O2)CC1 (centres undefined) | 95 to 96
NC(=O)NN=Cc1c(-c2ccccc2)nn2ccccc12 | 221 to 222
CC(C)Cn1c(CN2C(=O)c3ccccc3C2=O)c(OCCCC(F)(F)F)c2cc(OCc3ccccc3)ccc2c1=O | 131 to 132
O=C(NC(=O)c1ccccc1Cl)Nc1ccc(F)c(C(F)(F)F)c1Cl | 208
O=C(Nc1ccc(OCc2ccoc2)c2ccccc12)c1cc(F)cc(N2CCCCC2)c1 | 152 to 153
Cc1ncccc1CC(=NC#N)NC(NC(=O)Cc1ccc(Cl)cc1)C(C)(C)C (centres undefined) | 118 to 119
Cn1c(=O)cnn(-c2cc(O)c(Cl)cc2Cl)c1=O | 199 to 201
COC(=O)C(=O)c1ccc(OC/C=C/c2c(C(C)C)nc3ccccc3c2-c2ccc(F)cc2)cc1 | 109 to 111
CC(SC1COC(c2ccc(C(=O)Nc3ccc(C#N)cc3)cc2F)OC1)C(O)(Cn1cncn1)c1ccc(F)cc1F (centres undefined) | 110
CC(=O)Nc1ccc2c(c1)CC1(OC1c1ccccc1)C2=O (centres undefined) | 195 to 197
CNc1ccc(Cl)cc1C(=N)c1ccccc1 | 93 to 95

From a melting point compilation (Tetko et al.; mined from patent text by program, amines drawn as free bases though some values may be those of a salt)
